Test results published in US12552783B2, “Modulators of proteolysis and associated methods of use” (Arvinas Operations, Inc., priority 2018, dated 2026).

Biological target: KRas (Homo sapiens, UniProt P01116, G12C)
Assay: KRas degradation in SW1573 cells by Western blot, normalized to GAPDH (data of Table 14)
Type: cell-based
Conditions: SW1573 cells
Experimental: Cell Lines, Antibodies, and Reagents. NCI-H2030 (CRL-5914) and SW1573 (CRL-2170) cells were purchased from ATCC. Both cell lines are homozygous for the G12C mutation in KRas. NCI-H2030 cells were cultured in RPMI-1640 medium containing 1% penicillin-streptomycin and 10% fetal bovine serum (FBS). SW1573 cells were cultured in DMEM containing 1% penicillin-streptomycin and 10% FBS. The KRas detection antibody (Cat. No. LS-C175665) was purchased from LifeSpan Biosciences and was used at a dilution of 1:2000. GAPDH was detected using an antibody purchased from Cell Signaling Technology (Cat. No. 5174) and was diluted 1:3000. Secondary anti-mouse and anti-rabbit detection antibodies were purchased from Cell Signaling Technology (Cat. Nos. 7076 and 7074, respectively).
Compound Treatment and Western Blotting of the Data of Table 14. Either NCI-H2030 or SW1573 cells were plated in 12-well plates and allowed to adhere overnight at 37° C. in an incubator containing 5% CO2. The following day, the medium was replaced with the appropriate medium lacking FBS to induce starvation. Cells were returned to the incubator for an additional 24 hours following media exchange. […] Cells were treated with VHL-based compounds for 24 hours and all other compounds for 72 hours. Following treatment, cells were lysed in RIPA buffer (Thermo Fisher Cat. No. 89900) containing phosphatase (Thermo Fisher Cat. No. 1861277) and protease (Thermo Fisher Cat. No. 78429) inhibitor cocktails. Lysates were cleared at 13,000 rpm for 15 minutes and supernatants were assayed for total protein concentration using the Pierce BCA assay system (Thermo Fisher Cat. No. 23225). For each sample, 10 μg total protein was resolved on a 12% Bis-Tris gel and then transferred to a nitrocellulose membrane. After blocking in 3% BSA in TBST (Tris-buffered Saline with 0.1% Tween-20) for 1 hour at room temperature, membranes were probed with the primary antibody (LS Bio Cat. No. LS-C175665) overnight at 4° C. After incubation with the secondary antibody, the following day membranes were visualized using the SuperSignal™ West Femto substrate (Thermo Fisher Cat. No. 34095). The KRas signal in each lane was normalized to GAPDH and percent degradation was either estimated as less than 25% by visual inspection (C in Table 13) or quantitated relative to the DMSO control lane using BIO-RAD Image Lab 5.2.1, and all data was plotted using GraphPad PRISM 6.07.
DC50 is the half-maximal degradation concentration—i.e., the concentration at which 50% degradation is observed. DMax is the maximum degradation efficacy is achieved—i.e., the maximal degradation observed) degradation data.

| Percent Degradation at Indicated Concentration (μM) (0.1 μM) | Percent Degradation at Indicated Concentration (μM) (0.3 μM) | Percent Degradation at Indicated Concentration (μM) (1 μM) | Compound |
| --- | --- | --- | --- |
| B (35 < B < 70) | A (A > 70) | A (A > 70) | C=CC(=O)N1CCN(c2nc(O[C@H](C)CN3CCN(CC4CCN(CC(=O)N[C@H](C(=O)N5C[C@H](O)C[C@H]5C(=O)N[C@@H](C)c5ccc(-c6scnc6C)cc5)C(C)(C)C)CC4)CC3)nc3c(F)c(-c4cc(O)cc5ccccc45)c(Cl)cc23)CC1 [compound 404, (2S,4R)-1-((2S)-2-(2-(4-((4-((2R)-2-((4-(4-acryloylpiperazin-1-yl)-6-chloro-8-fluoro-7-(3-hydroxynaphthalen-1-yl)quinazolin-2-yl)oxy)propyl)piperazin-1-yl)methyl)piperidin-1-yl)acetamido)-3,3-dimethylbutanoyl)-4-hydroxy-N-((S)-1-(4-(4-methylthiazol-5-yl)phenyl)ethyl)pyrrolidine-2-carboxamide] |
| C (Percent Degradation: C ≤ 35) | C (Percent Degradation: C ≤ 35) | C (Percent Degradation: C ≤ 35) | C=CC(=O)N1CCN(c2nc(O[C@H](C)CN3CCC(OCCOCCOCC(=O)N[C@H](C(=O)N4C[C@@H](O)C[C@H]4C(=O)N[C@@H](C)c4ccc(-c5scnc5C)cc4)C(C)(C)C)CC3)nc3c(F)c(-c4cc(O)cc5ccccc45)c(Cl)cc23)CC1 [compound 405, (2S,4S)-1-((2S)-2-(2-(2-(2-((1-((2R)-2-((4-(4-acryloylpiperazin-1-yl)-6-chloro-8-fluoro-7-(3-hydroxynaphthalen-1-yl)quinazolin-2-yl)oxy)propyl)piperidin-4-yl)oxy)ethoxy)ethoxy)acetamido)-3,3-dimethylbutanoyl)-4-hydroxy-N-((S)-1-(4-(4-methylthiazol-5-yl)phenyl)ethyl)pyrrolidine-2-carboxamide] |
| C (Percent Degradation: C ≤ 35) | C (Percent Degradation: C ≤ 35) | C (Percent Degradation: C ≤ 35) | C=CC(=O)N1CCN(c2nc(O[C@H](C)CN3CCC(OCCOCCOCCOCCOCC(=O)N[C@H](C(=O)N4C[C@H](O)C[C@H]4C(=O)N[C@@H](C)c4ccc(-c5scnc5C)cc4)C(C)(C)C)CC3)nc3c2CCN(c2cc(O)cc4ccccc24)C3)CC1 [compound 409] |
| C (Percent Degradation: C ≤ 35) | C (Percent Degradation: C ≤ 35) | C (Percent Degradation: C ≤ 35) | C=CC(=O)N1CCN(c2nc(O[C@H](C)CN3CCC(OCCNc4cccc5c4C(=O)N(C4CCC(=O)NC4=O)C5=O)CC3)nc3c2CCN(c2cc(O)cc4ccccc24)C3)CC1 (stereo partly drawn) [compound 411, 4-((2-((1-((R)-2-((4-(4-acryloylpiperazin-1-yl)-7-(3-hydroxynaphthalen-1-yl)-5,6,7,8-tetrahydropyrido[3,4-d]pyrimidin-2-yl)oxy)propyl)piperidin-4-yl)oxy)ethyl)amino)-2-(2,6-dioxopiperidin-3-yl)isoindoline-1,3-dione] |
| C (Percent Degradation: C ≤ 35) | C (Percent Degradation: C ≤ 35) | C (Percent Degradation: C ≤ 35) | C=CC(=O)N1CCN(c2nc(O[C@H](C)CN3CCC(OCCOCCOCCOCCOCCNc4cccc5c4C(=O)N(C4CCC(=O)NC4=O)C5=O)CC3)nc3c2CCN(c2cc(O)cc4ccccc24)C3)CC1 (stereo partly drawn) [compound 415] |
| C (Percent Degradation: C ≤ 35) | C (Percent Degradation: C ≤ 35) | C (Percent Degradation: C ≤ 35) | C=CC(=O)N1CCN(c2nc(O[C@H](C)CN3CCC(OCCOCCOc4ccc5c(c4)C(=O)N(C4CCC(=O)NC4=O)C5=O)CC3)nc3c2CCN(c2cc(O)cc4ccccc24)C3)CC1 (stereo partly drawn) [compound 417, 5-(2-(2-((1-((R)-2-((4-(4-acryloylpiperazin-1-yl)-7-(3-hydroxynaphthalen-1-yl)-5,6,7,8-tetrahydropyrido[3,4-d]pyrimidin-2-yl)oxy)propyl)piperidin-4-yl)oxy)ethoxy)ethoxy)-2-(2,6 dioxopiperidin-3-yl)isoindoline-1,3-dione] |
| C (Percent Degradation: C ≤ 35) | C (Percent Degradation: C ≤ 35) | C (Percent Degradation: C ≤ 35) | C=CC(=O)N1CCN(c2nc(O[C@H](C)CN3CCC(OCCOCCOCCOCCOCCOc4ccc5c(c4)C(=O)N(C4CCC(=O)NC4=O)C5=O)CC3)nc3c2CCN(c2cc(O)cc4ccccc24)C3)CC1 (stereo partly drawn) [compound 420, 5-((14-((1-((R)-2-((4-(4-acryloylpiperazin-1-yl)-7-(3-hydroxynaphthalen-1-yl)-5,6,7,8-tetrahydropyrido[3,4-d]pylimidin-2-yl)oxy)propyl)piperidin-4-yl)oxy)-3,6,9,12-tetraoxatetradecyl)oxy)-2-(2,6-dioxopiperidin-3-yl)isoindoline-1,3-dione] |
| C (Percent Degradation: C ≤ 35) | C (Percent Degradation: C ≤ 35) | C (Percent Degradation: C ≤ 35) | C=CC(=O)N1CCN(c2nc(O[C@H](C)CN3CCC(OCCOc4ccc5c(c4)CN(C4CCC(=O)NC4=O)C5=O)CC3)nc3c2CCN(c2cc(O)cc4ccccc24)C3)CC1 (stereo partly drawn) [compound 421] |
| C (Percent Degradation: C ≤ 35) | C (Percent Degradation: C ≤ 35) | C (Percent Degradation: C ≤ 35) | C=CC(=O)N1CCN(c2nc(O[C@H](C)CN3CCC(OCCOCCOCCOCCOc4ccc5c(c4)CN(C4CCC(=O)NC4=O)C5=O)CC3)nc3c2CCN(c2cc(O)cc4ccccc24)C3)CC1 (stereo partly drawn) [compound 424, 3-(5-(2-(2-(2-(2-((1-((R)-2-((4-(4-acryloylpiperazin-1-yl)-7-(3-hydroxynaphthalen-1-yl)-5,6,7,8-tetrahydropyrido[3,4-d]pyrimidin-2-yl)oxy)propyl)piperidin-4-yl)oxy)ethoxy)ethoxy)ethoxy)ethoxy)-1-oxoisoindolin-2-yl)piperidine-2,6-dione] |
| C (Percent Degradation: C ≤ 35) | C (Percent Degradation: C ≤ 35) | C (Percent Degradation: C ≤ 35) | C=CC(=O)N1CCN(c2nc(O[C@H](C)CN3CCC(OCCOCCOCCOCCOCCOc4ccc5c(c4)CN(C4CCC(=O)NC4=O)C5=O)CC3)nc3c2CCN(c2cc(O)cc4ccccc24)C3)CC1 (stereo partly drawn) [compound 425, 3-(5-((14-((1-((R)-2-((4-(4-acryloylpiperazin-1-yl)-7-(3-hydroxynaphthalen-1-yl)-5,6,7,8-tetrahydropyrido[3,4-d]pyrimidin-2-yl)oxy)propyl)piperidin-4-yl)oxy)-3,6,9,12-tetraoxatetradecyl)oxy)-1-oxoisoindolin-2-yl)piperidine-2,6-dione] |
| C (Percent Degradation: C ≤ 35) | C (Percent Degradation: C ≤ 35) | C (Percent Degradation: C ≤ 35) | C=CC(=O)N1CCN(c2nc(O[C@H](C)CN3CCC(OCCOc4ccc5c(c4)C(=O)N(C4CCC(=O)NC4=O)C5=O)CC3)nc3c(F)c(-c4cc(O)cc5ccccc45)c(Cl)cc23)CC1 (stereo partly drawn) [compound 426, 5-(2-((1-((2R)-2-((4-(4-acryloylpiperazin-1-yl)-6-chloro-8-fluoro-7-(3-hydroxynaphthalen-1-yl)quinazolin-2-yl)oxy)propyl)piperidin-4-yl)oxy)ethoxy)-2-(2,6-dioxopiperidin-3-yl)isoindoline-1,3-dione] |
| C (Percent Degradation: C ≤ 35) | C (Percent Degradation: C ≤ 35) | C (Percent Degradation: C ≤ 35) | C=CC(=O)N1CCN(c2nc(O[C@H](C)CN3CCC(OCCOCCOc4ccc5c(c4)C(=O)N(C4CCC(=O)NC4=O)C5=O)CC3)nc3c(F)c(-c4cc(O)cc5ccccc45)c(Cl)cc23)CC1 (stereo partly drawn) [compound 427, 5-(2-(2-((1-((2R)-2-((4-(4-acryloylpiperazin-1-yl)-6-chloro-8-fluoro-7-(3-hydroxynaphthalen-1-yl)quinazolin-2-yl)oxy)propyl)piperidin-4-yl)oxy)ethoxy)ethoxy)-2-(2,6-dioxopiperidin-3-yl)isoindoline-1,3-dione] |
